Our source for the logP values is the SangsterLogP compilation.

For orientation: logP means the decadic logarithm of the partition coefficient of the neutral form, usually between octanol and water. A lower logP goes with lower lipophilicity.

The compound `CCCCCCCCCCCC(=O)OCC` registered a log partition coefficient (logP) of 5.71.

The compound `CCCCCCCCCCCCCCCC(=O)OC` came in with a logP of 7.38. Take `CCCCCCCCCCCCCCCCCCCCCC(=O)OC`: the log partition coefficient (logP) came to 10.2.

Compound `CCCCCCCCCCCC(=O)OC` displayed a lipophilicity (logP) of 5.41. `CCCCCCCCCCCCCCCCCCCC(=O)OC` displayed a lipophilicity (logP) of 9.3. The value for `CCCCCCCC/C=C\CCCCCCCC(=O)OC` was 7.45; that for `CCCCCCCCCCCC(=O)OCC(CC)CCCC` (stereo not given) was 8.03. With `CCCCC/C=C\C/C=C\CCCCCCCC(=O)OC` the figure was 6.82; with `CCCCCCCCCCCC(=O)OCCC`, 6.11. With `CC/C=C\C/C=C\C/C=C\CCCCCCCC(=O)OC` the figure was 6.29. Compound `CCCCCCCCCC(=O)OC` gave a lipophilicity (logP) of 4.42. The value for `CCCCCCCCCCCC(=O)OCCCC` was 6.51.

The compound `CCCCCCCCCCCCCCCCCC(=O)OC` returned a lipophilicity (logP) of 8.35. The value for `CCCCCCCCCCCCCC(=O)OC` was 6.41; that for `CCCCCCCC/C=C\CCCCCCCCCCCC(=O)OC` was 9.32.
